Measured values taken from patent US12275734B1, “Pleuromutilin onium salt derivative containing a 3H-imidazo[4,5-c]pyridine side chain, and a preparation method and application thereof” (SHAANXI UNIVERSITY OF SCIENCE AND TECHNOLOGY, priority 2024, dated 2025).

Tests used:
Assay in all cases: MIC, broth microdilution
Type in all cases: cell-based
[1] = system: A. baumannii ATCC 19606; conditions: Acinetobacter baumannii, ATCC19606; A. baumannii ATCC 19606; read-out: Minimum inhibitory concentration A.b.^f
Experimental: (§1) The minimum inhibitory concentration of 3H-imidazo[4,5-C]pyridine pleuromutilin onium salt derivatives against the tested pathogenic microorganisms were determined by broth microdilution method, with valnemulin and retapamulin as positive controls.
(§2) The experimental strains included resistant Gram-positive bacteria: Methicillin-resistant S. aureus ATCC 33591; Methicillin-resistant S. aureus ATCC 43300; S. aureus ATCC 29213; Methicillin-resistant S. epidermidis ATCC 51625. Resistant Gram-negative bacteria: A. baumannii ATCC 19606; S. enterica ATCC14028; E. coli ATCC 25922; E. coli CMCC 44103. 9 clinically isolated resistant strains: MRSA-171; MRSA-575; MRSA-206; MRSA-222; MRSA-596; VRE-80; MDR-PA-126; MDR-KP-893; CR-AB-882.
(§3) (1) Preparation of MHB medium: Weigh 18.0 g of MHB medium pre-made powder, add it to 1 L of distilled water, heat and boil until completely dissolved, divide it into conical bottles, sterilize it by high pressure at 121° C. for 15 minutes, and set aside.
(§4) (2) Cultivate the experimental strain to the logarithmic growth phase: Under sterile conditions, inoculate the experimental strain into fresh MHB medium and culture it in a 37° C. constant temperature and humidity incubator for 16-24 hours. Adjust the bacterial solution concentration to 1.5×10^8 CFU/mL and then dilute it 200 times for later use.
(§5) (3) Preparation of storage solution: Weigh the sample to be tested, dissolve it in 1% DMSO solution, and prepare a storage solution with a concentration of 2560 μg/mL; weigh the positive control, dissolve it in sterile distilled water, and prepare a storage solution with a concentration of 2560 μg/mL.
(§6) (4) Preparation of bacterial suspension: Under sterile conditions, the experimental strain cultured to the logarithmic growth phase was calibrated to a 0.5 McFarland unit turbidity standard using MHB medium and then diluted at a ratio of 1:200 to prepare a bacterial suspension with a concentration of 5×10^5 CFU/mL for later use.
(§7) (5) Determination of MIC by two-fold microdilution method: Take a sterile 96-well plate, add 10 μL of the test compound at a concentration of 2560 μg/mL, and perform serial dilutions by the two-fold dilution method. At the same time, set up a negative control group without drug. Then add 190 μL of diluted bacterial solution to each well, so that the final bacterial solution concentration in each well is 5×10^5 CFU/mL, and incubate in a 37° C. constant temperature and humidity chamber for 24 hours.

[2] = system: E. coli ATCC 25922; conditions: Escherichia coli, ATCC25922; E. coli ATCC 25922; read-out: Minimum inhibitory concentration E.c.^h
Experimental: as §1, §2, §3, §4, §5, §6, §7

[3] = system: E.coli CMCC 44103; conditions: Escherichia coli, CMCC44103; E.coli CMCC 44103; read-out: Minimum inhibitory concentration E.c.^i
Experimental: as §1, §2, §3, §4, §5, §6, §7

[4] = system: Methicillin-resistant S. aureus ATCC 33591; conditions: Staphylococcus aureus, ATCC 33591 / MRSA; Methicillin-resistant S. aureus ATCC 33591; read-out: Minimum inhibitory concentration MRSA^b
Experimental: as §1, §2, §3, §4, §5, §6, §7

[5] = system: Methicillin-resistant S. aureus ATCC 43300; conditions: Staphylococcus aureus, ATCC 43300 / MRSA; Methicillin-resistant S. aureus ATCC 43300; read-out: Minimum inhibitory concentration MRSA^c
Experimental: as §1, §2, §3, §4, §5, §6, §7

[6] = system: Methicillin-resistant S. epidermidis ATCC 51625; conditions: Staphylococcus epidermidis, ATCC 51625 / MRSE; Methicillin-resistant S. epidermidis ATCC 51625; read-out: Minimum inhibitory concentration MRSE^e
Experimental: as §1, §2, §3, §4, §5, §6, §7

[7] = system: S. aureus ATCC 29213; conditions: Staphylococcus aureus, ATCC29213; S. aureus ATCC 29213; read-out: Minimum inhibitory concentration S.a.^d
Experimental: as §1, §2, §3, §4, §5, §6, §7

[8] = system: S. enterica ATCC14028; conditions: Salmonella enterica; S. enterica ATCC14028; read-out: Minimum inhibitory concentration S.e.^g
Experimental: as §1, §2, §3, §4, §5, §6, §7

| Structure (SMILES) | MIC [1] | MIC [2] | MIC [3] | MIC [4] | MIC [5] | MIC [6] | MIC [7] | MIC [8] |
| --- | --- | --- | --- | --- | --- | --- | --- | --- |
| C=C[C@]1(C)C[C@@H](OC(=O)CSc2nc3cc[n+](Cc4cc(C)cc(C)c4)cc3[nH]2)[C@]2(C)[C@H](C)CC[C@]3(CCC(=O)[C@H]32)[C@@H](C)[C@@H]1O [Compound l, 5-(3,5-dimethylbenzyl)-2-((2-(((3aR,4R,5R,7S,8S,9R,9aS,12R)-8-hydroxy-4,7,9,12-tetramethyl-3-oxo-7-vinyldecahydro-4,9a-propancyclopenta[8]cyclo-5-yl)oxy)-2-oxoethyl)thio)-3H-imidazo[4,5-C]pyridine-5-ium] | 64 µg/mL | 64 µg/mL | 64 µg/mL | 64 µg/mL | 32 µg/mL | 64 µg/mL | 64 µg/mL | 32 µg/mL |
| C=C[C@]1(C)C[C@@H](OC(=O)CSc2nc3cc[n+](Cc4cc(OC)cc(OC)c4)cc3[nH]2)[C@]2(C)[C@H](C)CC[C@]3(CCC(=O)[C@H]32)[C@@H](C)[C@@H]1O [Compound n, 5-(3,5-dimethoxybenzyl)-2-((2-(((3aR,4R,5R,7S,8S,9R,9aS,12R)-8-hydroxy-4,7,9,12-tetramethyl-3-oxo-7-vinyldecahydro-4,9a-propancyclopenta[8]cyclo-5-yl)oxy)-2-oxoethyl)thio)-3H-imidazo[4,5-C]pyridine-5-ium] | 64 µg/mL | 64 µg/mL | 32 µg/mL | 64 µg/mL | 32 µg/mL | 64 µg/mL | 32 µg/mL | 128 µg/mL |
| C=C[C@]1(C)C[C@@H](OC(=O)CSc2nc3cc[n+](Cc4ccc(C(F)(F)F)cc4)cc3[nH]2)[C@]2(C)[C@H](C)CC[C@]3(CCC(=O)[C@H]32)[C@@H](C)[C@@H]1O [Compound b, 5-(4-trifluoromethyl)-2-((2-(((3aR,4R,5R,7S,8S,9R,9aS,12R)-8-hydroxy-4,7,9,12-tetramethyl-3-oxo-7-vinyldecahydro-4,9a-propancyclopenta[8]cyclo-5-yl)oxy)-2-oxoethyl)thio)-3H-imidazo[4,5-C]pyridine-5-ium] | 64 µg/mL | 32 µg/mL | 16 µg/mL | 32 µg/mL | 64 µg/mL | 32 µg/mL | 64 µg/mL | 16 µg/mL |
| C=C[C@]1(C)C[C@@H](OC(=O)CSc2nc3cc[n+](Cc4cc(F)c(F)cc4F)cc3[nH]2)[C@]2(C)[C@H](C)CC[C@]3(CCC(=O)[C@H]32)[C@@H](C)[C@@H]1O [Compound g, 5-(2,4,5-trifluorobenzyl)-2-((2-(((3aR,4R,5R,7S,8S,9R,9aS,12R)-8-hydroxy-4,7,9,12-tetramethyl-3-oxo-7-vinyldecahydro-4,9a-propancyclopenta[8]cyclo-5-yl)oxy)-2-oxoethyl)thio)-3H-imidazo[4,5-C]pyridine-5-ium] | 64 µg/mL | 64 µg/mL | 128 µg/mL | 128 µg/mL | 64 µg/mL | 64 µg/mL | 64 µg/mL | 128 µg/mL |
| C=C[C@]1(C)C[C@@H](OC(=O)CSc2nc3cc[n+](Cc4ccc(F)cc4)cc3[nH]2)[C@]2(C)[C@H](C)CC[C@]3(CCC(=O)[C@H]32)[C@@H](C)[C@@H]1O [Compound c, 5-(4-fluorobenzyl)-2-((2-(((3aR,4R,5R,7S,8S,9R,9aS,12R)-8-hydroxy-4,7,9,12-tetramethyl-3-oxo-7-vinyldecahydro-4,9a-propancyclopenta[8]cyclo-5-yl)oxy)-2-oxoethyl)thio)-3H-imidazo[4,5-C]pyridine-5-ium] | 32 µg/mL | 8 µg/mL | 8 µg/mL | 8 µg/mL | 16 µg/mL | 16 µg/mL | 4 µg/mL | 16 µg/mL |
| C=C[C@]1(C)C[C@@H](OC(=O)CSc2nc3cc[n+](Cc4ccc(Br)cc4)cc3[nH]2)[C@]2(C)[C@H](C)CC[C@]3(CCC(=O)[C@H]32)[C@@H](C)[C@@H]1O [Compound a, 5-(4-bromobenzyl)-2-((2-(((3aR,4R,5R,7S,8S,9R,9aS,12R)-8-hydroxy-4,7,9,12-tetramethyl-3-oxo-7-vinyldecahydro-4,9a-propancyclopenta[8]cyclo-5-yl)oxy)-2-oxoethyl)thio)-3H-imidazo[4,5-c]pyridin-5-ium] | 32 µg/mL | 16 µg/mL | 8 µg/mL | 8 µg/mL | 4 µg/mL | 16 µg/mL | 8 µg/mL | 4 µg/mL |

Molecules with a lower MIC [1], results first:

| MIC [1] | MIC [2] | MIC [3] | MIC [4] | MIC [5] | MIC [6] | MIC [7] | MIC [8] | Structure (SMILES) |
| --- | --- | --- | --- | --- | --- | --- | --- | --- |
| 8 µg/mL | 16 µg/mL | 8 µg/mL | 8 µg/mL | 2 µg/mL | 4 µg/mL | 4 µg/mL | 4 µg/mL | C=C[C@]1(C)C[C@@H](OC(=O)CSc2nc3cc[n+](Cc4ccc([N+](=O)[O-])cc4)cc3[nH]2)[C@]2(C)[C@H](C)CC[C@]3(CCC(=O)[C@H]32)[C@@H](C)[C@@H]1O [Compound f, 5-(4-nitrobenzyl)-2-((2-(((3aR,4R,5R,7S,8S,9R,9aS,12R)-8-hydroxy-4,7,9,12-tetramethyl-3-oxo-7-vinyldecahydro-4,9a-propancyclopenta[8]cyclo-5-yl)oxy)-2-oxoethyl)thio)-3H-imidazo[4,5-C]pyridine-5-ium] |
| 16 µg/mL | 4 µg/mL | 32 µg/mL | 16 µg/mL | 8 µg/mL | 16 µg/mL | 32 µg/mL | 16 µg/mL | C=C[C@]1(C)C[C@@H](OC(=O)CSc2nc3cc[n+](Cc4ccc(OC)cc4)cc3[nH]2)[C@]2(C)[C@H](C)CC[C@]3(CCC(=O)[C@H]32)[C@@H](C)[C@@H]1O [Compound d, 5-(4-methoxybenzyl)-2-((2-(((3aR,4R,5R,7S,8S,9R,9aS,12R)-8-hydroxy-4,7,9,12-tetramethyl-3-oxo-7-vinyldecahydro-4,9a-propancyclopenta[8]cyclo-5-yl)oxy)-2-oxoethyl)thio)-3H-imidazo[4,5-C]pyridine-5-ium] |
| 16 µg/mL | 64 µg/mL | 8 µg/mL | 32 µg/mL | 16 µg/mL | 32 µg/mL | 4 µg/mL | 8 µg/mL | C=C[C@]1(C)C[C@@H](OC(=O)CSc2nc3cc[n+](Cc4ccc(-c5ccccc5)cc4)cc3[nH]2)[C@]2(C)[C@H](C)CC[C@]3(CCC(=O)[C@H]32)[C@@H](C)[C@@H]1O [Compound j, 5-([1,1′-biphenyl]-4-ylmethyl)-2-((2-(((3aR,4R,5R,7S,8S,9R,9aS,12R)-8-hydroxy-4,7,9,12-tetramethyl-3-oxo-7-vinyldecahydro-4,9a-propancyclopenta[8]cyclo-5-yl)oxy)-2-oxoethyl)thio)-3H-imidazo[4,5-C]pyridine-5-ium] |
| 16 µg/mL | 32 µg/mL | 16 µg/mL | 32 µg/mL | 16 µg/mL | 16 µg/mL | 8 µg/mL | 32 µg/mL | C=C[C@]1(C)C[C@@H](OC(=O)CSc2nc3cc[n+](Cc4ccc(Cl)cc4)cc3[nH]2)[C@]2(C)[C@H](C)CC[C@]3(CCC(=O)[C@H]32)[C@@H](C)[C@@H]1O [Compound e, 5-(4-chlorobenzyl)-2-((2-(((3aR,4R,5R,7S,8S,9R,9aS,12R)-8-hydroxy-4,7,9,12-tetramethyl-3-oxo-7-vinyldecahydro-4,9a-propancyclopenta[8]cyclo-5-yl)oxy)-2-oxoethyl)thio)-3H-imidazo[4,5-C]pyridine-5-ium] |
